Entries after “also recorded” stand apart in the source; their conditions may differ.
Tests used:
[1] = target: T1, p65 (Homo sapiens, UniProt Q04206); experiment: Streptavidin-biotin pulldown / competition assay of NF-κB-ODN with Flag-p65; assay type: binding; settings: excess competitor
Experimental: To determine whether NF-κB-ODN binds with NF-κB properly, we also synthesized a biotin-modified version of NF-κB-ODN (hereafter termed as Biotin-NF-κB-ODN, FIGS. 3A-3C).
HEK293T cells that ectopically expressed either Flag-p65 or HAE2F1 were lysed by EBC buffer (50 mM Tris pH 7.5, 120 mM NaCl, 0.5% NP-40) supplemented with protease inhibitors (Pierce) and phosphatase inhibitors (phosphatase inhibitor cocktail set I and II, Calbiochem). The protein concentrations of the lysates were measured using the Bio-Rad protein assay reagent on a Beckman Coulter DU-800 spectrophotometer. The cell lysates (1 mg) were further incubated with biotin-ODN at 4 °C for 3 hours, followed by adding 10 μL of Streptavidin agarose beads (Thermo Fisher) for another 1 hour. The beads were washed 4 times with NETN buffer (100 mM NaCl, 20 mM Tris-Cl, pH 8.0, 0.5 mM EDTA, 0.5% NP-40), boiled in SDS loading buffer and further separated by 10% SDS-PAGE and blotted with individual antibody.
Target sequence in this assay (Q04206 whole entry): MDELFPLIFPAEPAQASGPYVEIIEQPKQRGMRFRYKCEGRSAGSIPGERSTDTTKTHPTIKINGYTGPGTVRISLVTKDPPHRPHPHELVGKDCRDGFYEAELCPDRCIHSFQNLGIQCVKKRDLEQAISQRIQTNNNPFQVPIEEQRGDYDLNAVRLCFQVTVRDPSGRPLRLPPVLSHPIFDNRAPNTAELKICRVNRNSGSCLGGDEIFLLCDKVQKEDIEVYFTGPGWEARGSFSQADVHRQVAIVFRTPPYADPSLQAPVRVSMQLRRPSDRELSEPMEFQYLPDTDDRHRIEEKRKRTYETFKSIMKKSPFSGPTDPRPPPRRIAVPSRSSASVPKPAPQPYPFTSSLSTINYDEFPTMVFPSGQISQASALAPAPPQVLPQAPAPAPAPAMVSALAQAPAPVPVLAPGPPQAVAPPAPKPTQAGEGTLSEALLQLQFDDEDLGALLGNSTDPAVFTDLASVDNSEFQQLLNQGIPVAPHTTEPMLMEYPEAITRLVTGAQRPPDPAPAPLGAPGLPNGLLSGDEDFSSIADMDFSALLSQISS

[2] = tested on: HeLa cells; experiment: Clonal (colony) formation assay; assay type: cell-based, human; settings: HeLa cells
Experimental: (§1) For cell growth curve assay, HeLa cells (10, 000/well) in 12-well plate were transfected with individual TF-PROTAC, then the cells were trypsined and the cell number were counted at indicated time. For the clonal formation assay, HeLa cells were transfected with individual TF-PROTAC for 12 hours, followed by further plated into 6-well plate (1,000/well). Three weeks later, the cells were fixed in fixation buffer (acetic acid: methanol=1:7) and stained with 0.4% crystal violet in 20% ethanol. Then clonal number were quantified by Image J software. As various changes can be made in the above-described subject matter without departing from the scope and spirit of the present disclsoure, it is intended that all subject matter contained in the above description, or defined in the appended claims, be interpreted as descriptive and illustrative. Many modifications and variations of the present disclosure are possible in light of the above teachings. Accordingly, the present description is intended to embrace all such alternatives, modifications and variances which fall within the scope of the appended claims.

[3] = target: T2, VHL E3 ubiquitin ligase and E2F1 transcription factor (Homo sapiens, UniProt P40337+Q01094+Q14186); experiment: GST pulldown assay of VHL E3 ligase complex and E2F1 with TF-PROTAC; assay type: binding; settings: in vitro pulldown
T2 construct: made in house; host or cells: E. coli BL21(DE3) for the GST-VHL/Elongin B/C complex; HEK293T lysate for the transfected transcription factor
Experimental: (§2) pGEX-GST-VHL/ElonginB construct was kindly gift from Dr. William Kaelin, Jr. at Dana-Farber Cancer Institute, Harvard Medical School. pGEX-GST-Elongin C plasmid was generated by subcloning Elongin C CDS into the BamHI and Xhol sites of pGEX-4T1-GST vector. The GST-VHL/ElonginB/C complex was purified as described 43. Briefly, BL21(DE3) E. coli was cotransfected with pGEX-GST-VHL/ElonginB and pGEX-GSTElonginC plasmid. Protein expression was induced by 100 μM isopropyl beta-D-thiogalactopyranoside (IPTG, Fisher Scientific) at 18° C.overnight. Then, the bacterial culture was centrifuged and sonicated in PBS buffer with protease inhibitor cocktail. Protein lysates were further purified with glutathione-Sepharose beads (GE17-0756-05) and washed with PBS for 5 times.
(§3) Glutathione-Sepharose beads loaded with GST-VHL E3 ligase complex were incubated at 4° C. with cell lysate derived from HEK293T cells that ectopic transfected with individual transfection factor. After incubation for 3 hours, TF-PROTACs were added into the mixture for another 2 hours, followed by wash with NETN buffer for 3 times. The pulldown products were further separated by 10% SDS-PAGE and blotted for indicated proteins.

[4] = target: T3, VHL E3-PROTAC-p65 ternary complex (Homo sapiens, UniProt P40337+Q04206); experiment: GST pulldown assay of VHL E3 ligase complex and p65 with TF-PROTAC; assay type: binding; settings: GST-VHL complex from E. coli, HEK293T lysate with Flag-p65, in vitro
T3 construct: made in house; host or cells: E. coli BL21(DE3) for the GST-VHL/Elongin B/C complex; HEK293T lysate for Flag-p65
From the text: Furthermore, dNF-κB is capable of recruiting VHL E3 ubiquitin ligase to POI, NF-κB. […] However, dNF-κB obtained in current stage could not efficiently promote the degradation of p65 in cells, which prompted further optimization of the length of linker between the VHL ligand and DNA oligomer moieties for achieving efficient destruction of NF-κB in cells.
as §2, §3

[5] = target: T4, p65 (Homo sapiens, UniProt P19838+Q04206); experiment: Western blot of p65 in HeLa cells transfected with TF-PROTAC; assay type: cell-based; settings: 12 hours, dNF-κB #1-#18 compared
T4 construct: endogenous in cells; host or cells: HeLa
Experimental: (§4) Human embryonic kidney 293T (HEK293T) and HeLa cells were maintained in Dulbecco's Modified Eagle's Medium (DMEM) containing 10% fetal bovine serum (FBS), 100 Units/mL of penicillin and 100 μg/mL streptomycin. For ectopic expression of transcription factors, Flag-p65 and HA-E2F1 were transfected into HEK293T cells and harvested for lysis 48 hours after transfection. For TF-PROTACs treatment, HeLa cells in 12-well plate were transfected with individual TF-PROTAC for 12 hours, followed by harvest for western blot analysis. […] For depletion of endogenous VHL E3 ligase, two sgRNA for VHL E3 ligase were synthesized and inserted into lenti-CRISPR-V2 construct 40. The sgVHL lentivirus were generated in HEK293T cells as previously described 41-42 for infection of HeLa cells overnight, followed by selection with puromycin for 72 h.
Cells were lysed in EBC buffer supplemented with protease inhibitors cocktail and phosphatase inhibitors, and the protein concentrations were measured as described above. The lysates (40 ug protein) were then resolved by 10% SDS-PAGE at 130 V for 80 min and immunoblotted with indicated antibodies at 4° C. overnight, washed 4 times with Tris-buffered saline with 0.1% Tween-20 (TBST), incubated with secondary antibody for 1 hour at room temperature, and then washed 4 times with TBST buffer. Anti-p65 (#8742, 1:1,000) and E2F1 (#3742, 1:500) antibodies were purchased from Cell Signaling Technologies. Anti-HA antibody (#901513, 1:1,000) was purchased from Biolegend. Anti-Flag (F3165, 1:5,000), anti-vinculin antibody (V-4505, 1:50,000), peroxidase-conjugated anti-mouse secondary antibody (A-4416, 1:3,000) and peroxidase-conjugated anti-rabbit secondary antibody (A-4914, 1:3,000) were purchased from Sigma. All primary antibodies were diluted in 5% bovine serum albumin (BSA) in TBST buffer, and secondary antibodies were diluted in 5% non-fat milk in TBST buffer.

[6] = target: T1, p65; experiment: In vivo ubiquitination assay of p65 (Ni-NTA pulldown); assay type: cell-based; settings: HEK293T cells, Flag-p65 24 hours, then dNF-κB 12 hours
Experimental: Denatured in vivo ubiquitination assays were performed as previously described 41. Briefly, HEK293T cells were firstly transfected with Flag-p65 or HA-E2F1 for 24 hours, followed by additional transfection of individual TF-PROTAC for another 12 hours. Before been harvested, HEK293T cells were treated with 30 μM of MG132 for 4 hours. After having been harvested in denatured buffer A (6 M guanidine-HCI, pH 8.0, 0.1 M Na2HPO4/NaH2PO4, and 10 mM imidazole) and sonication for 10 seconds, cell lysis was incubation with Ni-nitrilotriacetic acid (NTA) matrices under rotation for 3 hours at room temperature. The pulldown products were washed sequentially twice in buffer A, twice in buffer A/TI mixture (buffer A, buffer TI=1:3, v/v), and once in buffer TI (25 mM tris-HCl, pH 6.8, and 20 mM imidazole). The ubiquitinated proteins were finally separated by 7% SDS-PAGE and blotted with individual antibody.
Target sequence in this assay (Q04206 whole entry): as above

[7] = tested on: HeLa cells; experiment: Cell growth curve assay (cell number); assay type: cell-based, human; settings: 10 ug/mL
Experimental: as §1

[8] = target: T1, p65; experiment: Western blot of p65 in HeLa cells transfected with TF-PROTAC; assay type: cell-based; parameters: endogenous in cells; host or cells: HeLa; settings: 10 uM MG132
Experimental: as §4
Target sequence in this assay (Q04206 whole entry): as above
Target sequence in this assay (P19838 1-433 limits assumed, further chain): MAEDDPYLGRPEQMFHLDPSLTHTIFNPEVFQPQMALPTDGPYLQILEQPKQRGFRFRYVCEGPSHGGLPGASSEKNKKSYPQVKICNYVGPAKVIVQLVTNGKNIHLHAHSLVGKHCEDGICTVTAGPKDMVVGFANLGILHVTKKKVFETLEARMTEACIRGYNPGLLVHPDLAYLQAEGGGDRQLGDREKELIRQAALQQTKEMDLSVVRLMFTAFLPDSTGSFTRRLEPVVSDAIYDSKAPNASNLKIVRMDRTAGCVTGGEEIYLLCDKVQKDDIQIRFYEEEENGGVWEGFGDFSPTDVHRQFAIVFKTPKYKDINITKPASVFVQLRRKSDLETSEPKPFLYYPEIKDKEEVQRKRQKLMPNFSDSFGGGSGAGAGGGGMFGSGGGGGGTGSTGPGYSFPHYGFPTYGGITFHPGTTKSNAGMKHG
Cells were lysed in EBC buffer supplemented with protease inhibitors cocktail and phosphatase inhibitors, and the protein concentrations were measured as described above. The lysates (40 ug protein) were then resolved by 10% SDS-PAGE at 130 V for 80 min and immunoblotted with indicated antibodies at 4° C. overnight, washed 4 times with Tris-buffered saline with 0.1% Tween-20 (TBST), incubated with secondary antibody for 1 hour at room temperature, and then washed 4 times with TBST buffer. […]

T4 sequence (Q04206 whole entry): as the sequence (Q04206 whole entry) above
T4 sequence (P19838 1-433 limits assumed): as the sequence (P19838 1-433 limits assumed, further chain) above
T3 sequence (P40337 whole entry): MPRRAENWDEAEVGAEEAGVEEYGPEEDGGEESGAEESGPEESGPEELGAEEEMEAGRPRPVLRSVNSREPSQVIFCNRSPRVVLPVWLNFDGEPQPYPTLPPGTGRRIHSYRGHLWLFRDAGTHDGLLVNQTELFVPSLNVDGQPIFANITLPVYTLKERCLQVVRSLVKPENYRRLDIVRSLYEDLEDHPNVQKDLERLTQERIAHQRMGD
T3 sequence (Q15370 whole entry partner): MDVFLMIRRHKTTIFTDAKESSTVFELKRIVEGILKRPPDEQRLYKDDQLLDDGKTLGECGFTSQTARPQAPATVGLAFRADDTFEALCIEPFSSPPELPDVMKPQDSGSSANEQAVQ
T3 sequence (Q15369 whole entry partner): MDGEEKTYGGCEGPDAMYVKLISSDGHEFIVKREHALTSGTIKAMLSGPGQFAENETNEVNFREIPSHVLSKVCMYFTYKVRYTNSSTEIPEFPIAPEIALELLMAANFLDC
T3 sequence (Q04206 whole entry): as the sequence (Q04206 whole entry) above
T2 sequence (P40337 whole entry): as the sequence (P40337 whole entry) above
T2 sequence (Q15370 whole entry partner): as the sequence (Q15370 whole entry partner) above
T2 sequence (Q15369 whole entry partner): as the sequence (Q15369 whole entry partner) above
T2 sequence (Q01094 whole entry): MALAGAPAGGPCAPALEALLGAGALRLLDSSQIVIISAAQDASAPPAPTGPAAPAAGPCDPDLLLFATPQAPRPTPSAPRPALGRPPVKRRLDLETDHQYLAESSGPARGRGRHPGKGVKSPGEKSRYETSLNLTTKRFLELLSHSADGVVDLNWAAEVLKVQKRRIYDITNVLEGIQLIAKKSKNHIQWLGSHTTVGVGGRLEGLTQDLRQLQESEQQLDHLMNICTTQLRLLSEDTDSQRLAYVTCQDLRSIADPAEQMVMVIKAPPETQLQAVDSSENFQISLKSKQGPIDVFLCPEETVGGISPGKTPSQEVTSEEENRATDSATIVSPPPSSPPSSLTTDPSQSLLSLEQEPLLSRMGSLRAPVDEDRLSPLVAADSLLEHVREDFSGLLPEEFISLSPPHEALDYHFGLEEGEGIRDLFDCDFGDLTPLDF
T2 sequence (Q14186 whole entry): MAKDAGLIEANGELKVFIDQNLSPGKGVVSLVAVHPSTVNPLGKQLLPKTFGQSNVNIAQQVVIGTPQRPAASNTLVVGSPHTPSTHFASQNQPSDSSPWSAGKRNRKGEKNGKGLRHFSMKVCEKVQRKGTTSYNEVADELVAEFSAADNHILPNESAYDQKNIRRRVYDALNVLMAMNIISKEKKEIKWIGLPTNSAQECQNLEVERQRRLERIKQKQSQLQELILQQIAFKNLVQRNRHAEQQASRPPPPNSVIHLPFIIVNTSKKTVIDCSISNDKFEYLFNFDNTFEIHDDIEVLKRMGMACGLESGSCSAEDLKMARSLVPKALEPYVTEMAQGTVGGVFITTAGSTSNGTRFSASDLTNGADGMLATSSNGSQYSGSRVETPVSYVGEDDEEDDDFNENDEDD

Substance | competition with Biotin-NF-κB-ODN for binding to p65 [1] | VHL E3 ligase-p65 binding (ternary complex) induced by PROTAC [4] | p65 signal / degradation efficiency in western blot [5] | ubiquitination of p65 in cells [6] | also measured
5′-TGGGGACTTTCCAGTTTCTGGAAAGTCCCCA-3′ (chemistry not given here) [NF-κB-ODN, reference compound] | competed with Biotin-NF-κB-ODN for the binding with p65 | – | – | – | tumorigenesis ability (colony formation) [2]: not
N3-NF-κB-ODN: azide modification version of NF-κB-ODN, azide group on the 5′ end through the 5′ amino modifier C6 (TGGGGACTTTCCAGTTTCTGGAAAGTCCCCA; chemistry not fully specified) [Compound N3-NF-κB-ODN] | competed with Biotin-NF-κB-ODN for the binding with p65 | – | – | – | –
dE2F #15 (chain 1 CTAGATTTCCCGCG; chain 2 CTAGCGCGGGAAAT; DNA, backbone and methylation of C not given here; further chemistry not fully specified) | – | – | – | – | binding between VHL E3 ubiquitin ligase and E2F1 recruited by PROTAC [3]: recruited the binding between the VHL E3 ubiquitin ligase and E2F1 transcription factor in vitro
dNF-κB #1 (TGGGGACTTTCCAGTTTCTGGAAAGTCCCCA; DNA, backbone and methylation of C not given here; further chemistry not fully specified) | competed with Biotin NF-κB for binding to RelA/p65 | induced the VHL E3-PROTAC-p65 ternary complex formation | – | – | –
dNF-κB #4 (TGGGGACTTTCCAGTTTCTGGAAAGTCCCCA; VHL ligand conjugate via C4 linker, further chemistry not given here) | – | recruited the binding between the VHL E3 ubiquitin ligase and p65 in vitro | lowest p65 signal | lead to the ubiquitination of p65 in cells | –
dNF-κB #7 (TGGGGACTTTCCAGTTTCTGGAAAGTCCCCA; VHL ligand conjugate via C7 linker, further chemistry not given here) | – | recruited the binding between the VHL E3 ubiquitin ligase and p65 in vitro | lowest p65 signal | lead to the ubiquitination of p65 in cells | –
dNF-κB #15 (TGGGGACTTTCCAGTTTCTGGAAAGTCCCCA; decoy; VHL ligand conjugate via PEG2 linker, further chemistry not given here) | – | recruited the binding between the VHL E3 ubiquitin ligase and p65 in vitro | lowest p65 signal; also recorded: best degradation efficiency | lead to the ubiquitination of p65 in cells | proliferation of HeLa cells (cell number) [7]: repressed the proliferation of HeLa cells; tumorigenesis ability (colony formation) [2]: inhibited; degradation of endogenous p65 under proteasome inhibitor MG132 [8]: blocked the degradation of endogenous p65
dNF-κB #18 (TGGGGACTTTCCAGTTTCTGGAAAGTCCCCA; decoy; VHL ligand conjugate via PEG5 linker, further chemistry not given here) | – | recruited the binding between the VHL E3 ubiquitin ligase and p65 in vitro | lowest p65 signal | lead to the ubiquitination of p65 in cells | –
